Literature values as cited in EP1815850B1, “Controlled release formulation of divalproic acid and its derivatives” (TEVA PHARMACEUTICAL INDUSTRIES LTD., priority 2006, dated 2007).

Conditions: in adults

In the case of `CCCC(CCC)C(=O)O` [valproic acid, 2-Propylpentanoic acid], the elimination half-life is listed as “six and seventeen”.
